Where two headings read alike, the source gives them in different places. Values belong to the molecule of their own block, whether it stands above or below them.
Key:
LRH-1 = target: T1, LRH-1 (Homo sapiens, UniProt O00482); experiment: Luciferase reporter assay, LRH-1, HeLa cells; format: cell-based; conditions: for LRH-1 activation in luciferase reporter assay: small molecule at 0.1, 1, and 10 μM, relative to DMSO control; for specificity for LRH-1 over SF-1 in reporter assays: 0.1, 1, and 10 μM, LRH-1 vs SF-1 reporter
T1 construct: expressed in transfected cells; host or cells: HeLa
T1 sequence (O00482 whole entry): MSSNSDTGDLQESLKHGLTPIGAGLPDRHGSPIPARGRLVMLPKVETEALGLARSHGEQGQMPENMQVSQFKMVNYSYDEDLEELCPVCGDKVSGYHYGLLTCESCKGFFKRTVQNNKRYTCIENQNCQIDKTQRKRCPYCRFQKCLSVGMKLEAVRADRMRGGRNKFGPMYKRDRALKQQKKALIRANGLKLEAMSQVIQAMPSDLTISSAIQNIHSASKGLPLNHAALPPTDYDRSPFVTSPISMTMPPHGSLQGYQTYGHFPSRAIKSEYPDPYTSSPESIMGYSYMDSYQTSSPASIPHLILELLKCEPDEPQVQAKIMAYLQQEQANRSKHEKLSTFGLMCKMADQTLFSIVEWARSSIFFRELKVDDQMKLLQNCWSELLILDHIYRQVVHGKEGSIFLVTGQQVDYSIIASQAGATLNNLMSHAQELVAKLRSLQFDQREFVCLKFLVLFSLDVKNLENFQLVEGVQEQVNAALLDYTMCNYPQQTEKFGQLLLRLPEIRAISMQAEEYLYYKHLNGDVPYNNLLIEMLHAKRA
Method: (§1) Reporter assays were conducted as described previously ([47], [52], [53]). Briefly, HeLa cells were seeded at ∼7500 to 10,000 cells per well in 96-well plates (white-walled, clear bottom) in MEMα + 10% FBS – charcoal/dextran treated. Once cells reached 80 to 90% confluence, they were transfected with LRH-1 (in pCI vector, 5 ng/well) or SF-1 (in pcDNA vector, 5 ng/well), a reporter plasmid with an NR5A response element derived from the SHP promoter cloned upstream of Firefly Luciferase (in pGL3-Basic vector, 50 ng/well), and a plasmid expressing Renilla Luciferase constitutively from a CMV promoter (1 ng/well). Cells were transfected with FuGENE at a ratio of 3:1 (FuGENE:DNA). Twenty-four hours after transfection, compounds were diluted in Opti-MEM and introduced to cells at the final concentrations indicated in figures (final DMSO concentration was 0.37%). Luciferase signal was measured after ∼24 h using the DualGlo kit (Promega) with a BioTek Neo plate reader. Each experiment was conducted with three biological replicates, each with three technical replicates averaged prior to data analysis. Firefly Luciferase signal for each well was divided by the well’s Renilla Luciferase signal intensity and then normalized relative to the DMSO control. Data were analyzed with GraphPad Prism (version 9) using a stimulating dose–response curve (Hill slope = 1).

SF-1 = target: T2, SF-1 (Homo sapiens, UniProt Q13285); experiment: Luciferase reporter assay, SF-1, HeLa cells; format: cell-based; conditions: for SF-1 activation in luciferase reporter assay: small molecule at 0.1, 1, and 10 μM, relative to DMSO control; for EC50: HeLa cells, ~24 h; for luciferase signal at highest concentration: cells treated with 3e-5 M, potentially indicating cell toxicity or compound insolubility, data excluded; for maximum activation: normalized relative to DMSO control
T2 construct: expressed in transfected cells; host or cells: HeLa
T2 sequence (Q13285 whole entry): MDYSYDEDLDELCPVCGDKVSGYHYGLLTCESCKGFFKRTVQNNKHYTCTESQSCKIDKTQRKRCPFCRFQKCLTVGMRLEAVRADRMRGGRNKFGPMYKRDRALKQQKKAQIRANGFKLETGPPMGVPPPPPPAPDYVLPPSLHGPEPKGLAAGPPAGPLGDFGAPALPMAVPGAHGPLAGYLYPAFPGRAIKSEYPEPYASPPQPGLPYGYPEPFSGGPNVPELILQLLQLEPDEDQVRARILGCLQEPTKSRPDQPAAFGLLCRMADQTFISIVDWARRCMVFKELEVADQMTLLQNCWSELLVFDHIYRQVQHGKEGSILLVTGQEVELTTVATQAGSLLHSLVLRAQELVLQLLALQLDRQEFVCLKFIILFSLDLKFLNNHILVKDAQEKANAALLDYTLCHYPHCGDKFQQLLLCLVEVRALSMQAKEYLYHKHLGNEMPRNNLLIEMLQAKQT
Method: as §1

SF-1 LBD T272V = target: T3, SF-1 LBD T272V (Homo sapiens, UniProt Q13285, T272V); experiment: FP assay (forward binding and competition), SF-1 T272V; conditions: for effect of deep pocket mutation on binding affinity: T272 mutant compared to WT, FP competition
T3 construct: transformed with the SF-1 LBD (amino acids 218–461) in the pLIC-His vector; His (pLIC-His vector); made in house
T3 sequence (Q13285 218-461 T272V): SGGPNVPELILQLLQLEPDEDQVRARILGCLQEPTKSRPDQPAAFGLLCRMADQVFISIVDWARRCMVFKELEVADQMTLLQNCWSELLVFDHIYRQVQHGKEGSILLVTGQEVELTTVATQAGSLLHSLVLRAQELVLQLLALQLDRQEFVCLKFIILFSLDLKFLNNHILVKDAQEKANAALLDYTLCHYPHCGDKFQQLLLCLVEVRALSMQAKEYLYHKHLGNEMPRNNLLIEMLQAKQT
Method: (§2) FP assays were performed as described previously ([38], [47], [53]). Briefly, experiments were conducted in black, polystyrene, non-binding surface 384-well plates (Corning Inc., Corning, NY) with 30 μl volumes in assay buffer (150 mM NaCl, 20 mM Tris-HCl, 5% glycerol, pH 7.4). […] Polarization was monitored on a Neo plate reader (Biotek, Winooski, VT) at an excitation/emission wavelength of 485/528 nm. Plates were incubated overnight at 4 °C and centrifuged at 2000g for 2 min before polarization measurement. Nine technical replicates were conducted over three experiments and compiled binding data were baseline-corrected to wells with no protein and fit with a one-site binding curve in GraphPad Prism version 7 (GraphPad, Inc, La Jolla, CA). 6N conjugated to fluorescein amidite (FAM) (10 nM/well – 0.8 times the affinity of SF-1 for 6N-FAM) was incubated with SF-1 LBD (25 nM/well – 60% of the forward binding Bmax). Unlabeled compounds were added at concentrations indicated in figures with DMSO in each well held constant at 6.7% v/v. Each experiment was performed two or three times with four technical replicates each. Technical replicates were averaged and normalized independently prior to final data analysis.
(§3) All mutations other than L265M were introduced using the QuikChange II Site-Directed Mutagenesis Kit (Agilent). The Q5 Site-Directed Mutagenesis Kit (New England Biolabs) was used to generate the L265M mutant. All constructs were sequenced prior to use.

SF-1 LBD Y436F = target: T4, SF-1 LBD Y436F (Homo sapiens, UniProt Q13285, Y436F); experiment: FP assay (forward binding and competition), SF-1 Y436F; conditions: for effect of pocket mouth mutation Y436 on binding affinity: compared to WT, FP competition
T4 construct: transformed with the SF-1 LBD (amino acids 218–461) in the pLIC-His vector; His (pLIC-His vector); made in house
T4 sequence (Q13285 218-461 Y436F): as the sequence (Q13285 218-461 T272V) above, with V55T, Y219F counted along it
Method: as §2, §3

SF-1 LBD [1] = target: T5, SF-1 LBD (Homo sapiens, UniProt Q13285); experiment: Differential scanning fluorimetry (thermal shift assay); format: binding; conditions: for Tm (melting temperature): SF-1 LBD pre-exchanged with DLPC, incubated with small molecule overnight; for positive shift in melting temperature: relative to the DLPC phospholipid control
T5 construct: transformed with the SF-1 LBD (amino acids 218–461) in the pLIC-His vector; made in house; host or cells: E. coli BL21(DE3)-pLysS
T5 sequence (Q13285 218-461): as the sequence (Q13285 218-461 T272V) above, with V55T counted along it
Method: Purified SF-1 LBD, pre-exchanged with DLPC (0.2 mg/ml), was combined with small molecules overnight at 4 °C in assay buffer. SYPRO orange dye was added to the complexes the next day, at a final dilution of 1:1000. Complexes were heated at a rate of 0.5 °C/minute on a StepOne Plus thermocycler, using the ROX filter for fluorescence detection. The melting temperature (Tm, 50% unfolding) was calculated using the Bolzman equation GraphPad Prism (version 9). Assays were conducted with nine technical replicates over three experiments.

SF-1 LBD K440A = target: T6, SF-1 LBD K440A (Homo sapiens, UniProt Q13285, K440A); experiment: FP assay (forward binding and competition), SF-1 K440A
T6 construct: transformed with the SF-1 LBD (amino acids 218–461) in the pLIC-His vector; His (pLIC-His vector); made in house
T6 sequence (Q13285 218-461 K440A): as the sequence (Q13285 218-461 T272V) above, with V55T, K223A counted along it
Method: as §2
All mutations other than L265M were introduced using the QuikChange II Site-Directed Mutagenesis Kit (Agilent). […]

SF-1 LBD [2] = target: T5, SF-1 LBD; experiment: FP assay (6N-FAM forward binding and competition), wild-type SF-1; conditions: for Ki: FP competition with 10 nM 6N-FAM, 25 nM SF-1 LBD, 95% confidence intervals in brackets, read-out: Ki (inhibition constant)
Method: as §2

SF-1 LBD M268L = target: T7, SF-1 LBD M268L (Homo sapiens, UniProt Q13285, M268L); experiment: FP assay (forward binding and competition), SF-1 M268L; conditions: for effect of deep pocket mutation on binding affinity: M268 mutant compared to WT, FP competition
T7 construct: transformed with the SF-1 LBD (amino acids 218–461) in the pLIC-His vector; His (pLIC-His vector); made in house
T7 sequence (Q13285 218-461 M268L): as the sequence (Q13285 218-461 T272V) above, with M51L, V55T counted along it
Method: as §2, §3

L265M SF-1 mutant = target: T8, L265M SF-1 mutant (Homo sapiens, UniProt Q13285, L265M); experiment: Luciferase reporter assay, L265M SF-1 mutant; format: cell-based; conditions: 0.1, 1, and 10 µM, relative to DMSO control
T8 construct: expressed in transfected cells; host or cells: HeLa
T8 sequence (Q13285 whole entry L265M): as the sequence (Q13285 whole entry) above, with L265M counted along it
Method: as §1, with “1). […]” for “1).”

[3] = target: T9, CysLite SF-1 (steroidogenic factor-1 ligand binding domain, amino acids 218-461, C247S, C412S) (human, UniProt Q13285 218-461, C247S | C412S); experiment: crystal structure; cleaved SF-1 CysLite (~5 mg/ml) incubated with 4-fold molar excess of TIF2 peptide at room temperature for 2 h; hanging drop vapor diffusion at 4 °C, Na acetate pH 4.6, glycerol, PEG 4000; crystals soaked 2 days with 6N-10CA; 2.59 Å; conditions: both partners purified
T9 construct: Steroidogenic factor-1 (SF-1); Expressed from the pLic-His vector; His tag cleaved with tobacco etch virus protease; In the crystal the pocket holds 6N-10CA (soaked in) and a bacterial phospholipid modelled as DPPE; also called SF-1 LBD; SF-1 CysLite; source: E. coli BL21(DE3)-pLysS, purified (HisTrap, TEV cleavage, second HisTrap, SEC)
T9 sequence (Q13285 218-461 C247S/C412S): as the sequence (Q13285 218-461 T272V) above, with C30S, V55T, C195S counted along it

[4] = 95% confidence intervals in brackets, read-out: EC50 (half maximal effective concentration)

LRH-1 activation in luciferase reporter assay (LRH-1): activated LRH-1
SF-1 activation in luciferase reporter assay (SF-1): without activating SF-1
Molecule: C=C(c1ccccc1)C12CCC(NC(C)=O)C1CC(CCCCCC)=C2c1ccccc1 (stereo not shown) [2N]

effect of deep pocket mutation on binding affinity (SF-1 LBD T272V): decreased SF-1 binding affinity
effect of pocket mouth mutation Y436 on binding affinity (SF-1 LBD Y436F): minimal impact
Tm (melting temperature) (SF-1 LBD [1]): 58.3 °C
positive shift in melting temperature (SF-1 LBD [1]): ~6.5 °C
EC50 (SF-1; read-out: EC50): 100 nM
potency of 6N-10CA relative to 10CA (more potent) (SF-1; SF-1 luciferase reporter): 16 fold
potency for SF-1 compared with LRH-1 (SF-1; SF-1 vs LRH-1 value of ref 47): nearly two times less
maximum activation (SF-1): ~1.7
Ki (SF-1 LBD [2]): 60 nM
affinity for SF-1 compared with LRH-1 (SF-1 LBD [2]; SF-1 Ki (Fig. 3C) vs LRH-1 value of ref 47): over two orders of magnitude lower
improvement in affinity of 6N-10CA over 10CA (SF-1 LBD [2]; SF-1 binding, FP competition): ~4 fold
increase in affinity of 6N-10CA over 6N (SF-1 LBD [2]; SF-1 binding, FP competition): ~20 fold
effect of deep pocket mutation on binding affinity (SF-1 LBD M268L): decreased SF-1 binding affinity
Molecule: C=C(c1ccccc1)[C@@]12CC[C@H](NS(N)(=O)=O)[C@@H]1CC(CCCCCCCCCC(=O)O)=C2c1ccccc1 (racemic) [6N-10CA]
luciferase signal at highest concentration (SF-1): drastic decrease in overall signal
effect of K440A mutation on binding affinity (SF-1 LBD K440A; compared to WT, FP competition): increased affinity for 6N-10CA was statistically insignificant

LRH-1 activation in luciferase reporter assay (LRH-1): improved agonism
activation of L265M SF-1 mutant (L265M SF-1 mutant): failed to activate
Molecule: C=C(c1ccccc1)[C@@]12CC[C@H](NC(C)=O)C1CC(CCCCCCCCCC(=O)O)=C2c1ccccc1 (mixture of isomers) [2N-10CA]
specificity for LRH-1 over SF-1 in reporter assays (LRH-1): specificity for LRH-1 was largely preserved

SF-1 activation in luciferase reporter assay (SF-1): reduced SF-1 activity
Molecule: C=C(c1ccccc1)C12CCC(OC(N)=O)C1CC(CCCCCC)=C2c1ccccc1 (stereo not shown) [3N]

effect of pocket mouth mutation Y436 on binding affinity (SF-1 LBD Y436F): minimal impact
Tm (melting temperature) (SF-1 LBD [1]): 58.6 °C
positive shift in melting temperature (SF-1 LBD [1]): ~6.5 °C
EC50 (SF-1; [4]): 130 nM
maximum activation (SF-1): ~1.4
Ki (SF-1 LBD [2]): 1400 nM
Molecule: C=C(c1ccccc1)[C@@]12CC[C@H](NS(N)(=O)=O)[C@@H]1CC(CCCCCC)=C2c1ccccc1 (racemic) [6N]
luciferase signal at highest concentration (SF-1): drastic decrease in overall signal

Kd (SF-1 LBD T272V; T272V, 10 nM 6N-FAM, read-out: probe affinity determined with forward binding assays): 10.9 nM
Kd (SF-1 LBD Y436F; Y436F, 10 nM 6N-FAM, read-out: probe affinity determined with forward binding assays): 9.9 nM
Kd (SF-1 LBD K440A; K440A, 10 nM 6N-FAM, read-out: probe affinity determined with forward binding assays): 5.5 nM
Kd (SF-1 LBD [2]; WT SF-1 LBD, 10 nM 6N-FAM, read-out: probe affinity determined with forward binding assays): 12 nM
Kd (SF-1 LBD M268L; M268L, 10 nM 6N-FAM, read-out: probe affinity determined with forward binding assays): 19.3 nM
Molecule: C=C(c1ccccc1)[C@@]12CC[C@H](NS(N)(=O)=O)[C@@H]1CC(CCCCCCCCCC(=O)Nc1ccc3c(c1)C(=O)OC31c3ccc(O)cc3Oc3cc(O)ccc31)=C2c1ccccc1 (racemic) [6N-FAM, reference compound]

LRH-1 activation in luciferase reporter assay (LRH-1): activated LRH-1
SF-1 activation in luciferase reporter assay (SF-1): without activating SF-1
Molecule: C=C(c1ccccc1)C12CCC(NC(N)=O)C1CC(CCCCCC)=C2c1ccccc1 (stereo not shown) [4N]

effect of deep pocket mutation on binding affinity (SF-1 LBD T272V): decreased SF-1 binding affinity
effect of pocket mouth mutation Y436 on binding affinity (SF-1 LBD Y436F): decreased 10CA binding affinity
Tm (melting temperature) (SF-1 LBD [1]): 54.5 °C
positive shift in melting temperature (SF-1 LBD [1]): ~2 °C
EC50 (SF-1; [4]): 1600 nM
Ki (SF-1 LBD [2]): 250 nM
effect of deep pocket mutation on binding affinity (SF-1 LBD M268L): decreased SF-1 binding affinity
Molecule: C=C(c1ccccc1)[C@@]12CC[C@@H](O)[C@@H]1CC(CCCCCCCCCC(=O)O)=C2c1ccccc1 (racemic) [10CA]

LRH-1 activation in luciferase reporter assay (LRH-1): improved agonism
Molecule: C=C(c1ccccc1)[C@@]12CC[C@H](NC(N)=O)C1CC(CCCCCCCCCC(=O)O)=C2c1ccccc1 (mixture of isomers) [4N-10CA]
specificity for LRH-1 over SF-1 in reporter assays (LRH-1): specificity for LRH-1 was largely preserved

Molecule: CCCCCCCCCCCC(=O)OC[C@H](COP(=O)([O-])OCC[N+](C)(C)C)OC(=O)CCCCCCCCCCC [DLPC, 1,2-dilauroyl-sn-glycero-3-phosphocholine, reference compound]
Tm (melting temperature) (SF-1 LBD [1]): 52.2 °C

binding result [3]: binds
B1: TIF2 peptide (fragment of the coactivator transcriptional intermediate factor 2) (peptide)
peptide: KENALLRYLLDKDD
